Results as given in patent US12234216B2, “Isotopologues salts, crystalline forms, stereoisomers, of methylone and ethylone and methods of use thereof” (Terran Biosciences Inc., priority 2021, dated 2025).
Where a name gives a salt, the structure may show the parent alone.

Assays:
Male Sprague-Dawley rats = experiment: Rat elevated zero-maze model of anxiety; assay type: in vivo
Excerpt: The rat zero-maze model is a refined alternative to the plus-maze, the most widely used animal model of anxiety, and consists of an elevated annular platform, divided equally into four quadrants. Two opposite quadrants are enclosed by Perspex walls on both the inner and the outer edges of the platform, while the remaining two opposite quadrants are open being enclosed only by a Perspex “lip”. Animals will show a preference for the closed areas, and avoidance of the open sections is assumed to stem from a rodent's natural aversion to open, exposed spaces. The primary index of anxiety, which reflect changes in open arm preference, is the percentage of time spent on the open areas. A reduction in the amount of activity on the open areas is considered to reflect an increase in anxiety. Other, ethologically-based behaviours are also assessed as indices of anxiety. One of the most important is stretched attend postures (SAP) from closed to open quadrants. […] Shepherd, J K; et al., (1994) Behavioural and pharmacological validation of the elevated “zero-maze” as an animal model of anxiety. Psychopharmacol., 116:56-64.
Male Sprague-Dawley 200-250 g (Envigo UK) rats were used. Animals were group-housed (5 per cage; cage size: 40×40×20 cm) in a temperature-controlled environment (22±2° C.), under a 12 h light-dark cycle (lights on: 08:00 hours) for one week prior to testing. Food and water were freely available. Number of animals per group=5. Animals were moved into the experimental room 16-24 hours before testing.
The elevated 0-maze comprises a black Perspex annular platform (105 cm diameter, 10 cm width) elevated to 65 cm above ground level, divided equally into four quadrants. Two opposite quadrants are enclosed by clear red Perspex walls (27 cm high) on both the inner and outer edges of the platform, while the remaining two opposite quadrants are surrounded only by a Perspex “lip” (1 cm high) which serves as a tactile guide to animals on these open areas.
Subjects were weighed and tail marked before being injected. After a specified pre-treatment time, subjects were placed in a closed quadrant and a 5-min test period were recorded on videotape for subsequent analysis. The maze were cleaned with 5% methanol/water solution and dried thoroughly between test sessions. Behavioural measures comprise percentage time spent on the open areas (% TO) and frequency of stretched attend postures (SAP) from closed to open quadrants. Since the control groups were all treated identically with the same vehicle these were combined to increase power. The Chlordiazepoxide groups were also treated identically with the same dose so these were also combined to increase power. Animals are scored as being in the open area when all four paws were in an open quadrant and in the closed area only when all four paws have passed over the open-closed divide. All testing were carried out between 9.00 and 16.00 hours.
For each study, a 1-way ANOVA was conducted across vehicle, CDP, and drug treatment groups. Each group was compared to the vehicle group and a p-value for treatment determined by Fishers Least Significant Difference (LSD) test. This analysis was performed in GraphPad Prism (Version 9). Formulations: […]
Intraperitoneal (IP): Racemic methylone HCl was formulated in Vehicle 1 (Saline) for injection to concentrations of 1, 3 and 6 mg/mL to provide doses of 5, 15 and 30 mg/kg when administered ip in 5 mL/kg dosing volumes.
Intraperitoneal (IP): S-methylone HCl was formulated in Vehicle 1 (Saline) for injection to concentrations of 0.5, 1, 1.5, 3 and 6 mg/mL to provide doses of 2.5, 5, 7.5, 15 and 30 mg/kg when administered ip in 5 mL/kg dosing volumes.
Intraperitoneal (IP): R-methylone HCl was formulated in Vehicle 1 (Saline) for injection to concentrations of 1, 3 and 6 mg/mL to provide doses of 5, 15 and 30 mg/kg when administered ip in 5 mL/kg dosing volumes. […]

[1] = Solubility screen (solvent aliquots, visual inspection); assay type: physicochemical
Procedure: The experiments were carried out by adding the test solvent in aliquots to weighed portions of solid. Whether dissolution had occurred was judged by visual inspection after addition of each solvent aliquot. Solubility numbers recorded in Table 4 were calculated by dividing the weight of the sample by the total amount of solvent used to dissolve the sample. The actual solubilities may be greater than the numbers calculated because of the use of solvent aliquots that were too large or because of slow dissolution rates. All solubility measurements were carried out at room temperature unless noted otherwise.

SMILES: CNC(C)C(=O)c1ccc2c(c1)OCO2 (racemic) [(rac)-Methylone Hydrochloride, 3,4-methylenedioxy-N-methylcathinone hydrochloride]
- overall effect on anxiety (Male Sprague-Dawley rats; 5 mg/kg ip): anxiogenic effect
- time spent in the open arms (Male Sprague-Dawley rats; 5 mg/kg ip, vs placebo): decrease in time spent in the open arms vs placebo
- frequency of SAPs (Male Sprague-Dawley rats; 15 mg/kg ip): dose dependent decrease in SAPs
- overall effect on anxiety (Male Sprague-Dawley rats; 15 mg/kg ip): mixed anxiogenic anxiolytic effect
- decrease in SAPs compared with chlordiazepoxide (Male Sprague-Dawley rats; 15 mg/kg ip vs chlordiazepoxide 6 mg/kg ip): not as effective as chlordiazepoxide
- time spent in the open arms (Male Sprague-Dawley rats; 15 mg/kg ip, vs placebo): no difference from placebo in time spent in the open arms
- frequency of SAPs (Male Sprague-Dawley rats; 30 mg/kg ip): decrease in SAPs
- time spent in the open arms (Male Sprague-Dawley rats; 30 mg/kg ip): significant decrease in time spent in the open arms
- anxiolytic effects compared with chlordiazepoxide (Male Sprague-Dawley rats; high dose level): anxiolytic effects as effective as chlordiazepoxide
- anxiogenic effects at lower doses (Male Sprague-Dawley rats; lower doses, ip): anxiogenic effects at lower doses
- time in the open arms (Male Sprague-Dawley rats; specific doses, ip, 30 min pretest, FIGS. 62-64): increase time in the open arms
- frequency of SAPs (Male Sprague-Dawley rats; specific doses, ip, 30 min pretest, vs chlordiazepoxide 6 mg/kg, FIGS. 65-67): decreased the frequency of SAPs as effectively as the benzodiazepine chlordiazepoxide
- Solubility ([1]; MeOH, room temperature): 48 mg/mL
- Solubility ([1]; MeOH/CHCl3 50/50, room temperature): 45 mg/mL
